Test results taken from ChEMBL document CHEMBL4007403, “Identification of Triazolothiadiazoles as Potent Inhibitors of the dCTP Pyrophosphatase 1” (J Med Chem, 2017).
Values after ≈ are worked out from the molar mass of the structure shown.

Assays:
[1] = Hepatic extraction ratio in mouse liver microsomes up to 100 uM preincubated for 10 mins followed by NADPH addition by UPLC-MS analysis; assay type: ADME, microsome; details: read-out: ERH
[2] = Half life in mouse liver microsomes up to 100 uM preincubated for 10 mins followed by NADPH addition by UPLC-MS analysis; assay type: ADME, microsome
[3] = Stability of the compound in DMSO measured after several months by HPLC-MS analysis; assay type: physicochemical
[4] = target: T1, dCTP pyrophosphatase 1 (Homo sapiens) (UniProt Q9H773)
T1 sequence (whole entry): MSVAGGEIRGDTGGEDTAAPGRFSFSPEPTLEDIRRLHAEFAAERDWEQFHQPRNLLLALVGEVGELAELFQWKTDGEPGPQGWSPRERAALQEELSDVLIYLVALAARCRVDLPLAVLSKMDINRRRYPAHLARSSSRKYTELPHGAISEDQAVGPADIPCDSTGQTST
Description: Binding affinity to recombinant human N-terminal His-tagged dCTPase 1 expressed in Escherichia coli BL21(DE3)pLysS assessed as change in melting temperature at 33 uM by Sypro Orange dye based DSF assay

[5] = Stability of the compound in biochemical assay buffer under basic mobile phase conditions by HPLC-MS analysis; assay type: physicochemical
[6] = Stability of the compound in biochemical assay buffer under mildly acidic mobile phase conditions by HPLC-MS analysis; assay type: physicochemical
[7] = Kinetic solubility of the compound; assay type: physicochemical; details: read-out: Kinetic_solubility
[8] = Half life in human liver microsomes up to 100 uM preincubated for 10 mins followed by NADPH addition by UPLC-MS analysis; assay type: ADME, microsome
[9] = Intracellular bioavailability in human HL60 cells assessed as ratio of fraction unbound in cells to intracellular drug accumulation at 0.5 uM after 45 mins by LC-MS/MS analysis; assay type: ADME; details: hl-60, 0.75 h
[10] = Hepatic extraction ratio in human liver microsomes up to 100 uM preincubated for 10 mins followed by NADPH addition by UPLC-MS analysis; assay type: ADME, microsome; details: read-out: ERH
[11] = target: T2, dCTP pyrophosphatase 1 (Homo sapiens, UniProt Q9H773); test: Inhibition of recombinant human N-terminal His-tagged dCTPase 1 expressed in Escherichia coli BL21(DE3)pLysS using dCTP as substrate after 1 hr by malachite green reagent based assay
T2 sequence (Q9H773 whole entry): T1 sequence (whole entry)

[12] = tested on: HL-60; test: Cytotoxicity against human HL60 cells assessed as decrease in cell viability at 1 to 5 uM after 72 hrs by resazurin assay; assay type: cell-based; details: hl-60, 72 h
[13] = target: T3, Uridine diphosphate glucose pyrophosphatase NUDT14 (Homo sapiens, UniProt O95848); test: Inhibition of human His-tagged NUDT14 expressed in bacterial expression system after 1 hr by malachite green reagent based assay
T3 sequence (O95848 whole entry): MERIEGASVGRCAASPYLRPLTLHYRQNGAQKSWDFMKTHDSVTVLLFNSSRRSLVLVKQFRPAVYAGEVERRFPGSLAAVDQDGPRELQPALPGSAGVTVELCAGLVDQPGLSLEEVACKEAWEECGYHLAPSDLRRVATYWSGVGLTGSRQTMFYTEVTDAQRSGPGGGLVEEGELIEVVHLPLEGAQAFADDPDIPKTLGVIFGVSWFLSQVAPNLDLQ

[14] = target: Bis(5'-nucleosyl)-tetraphosphatase [asymmetrical] (Homo sapiens, UniProt P50583); test: Inhibition of NUDT2 (unknown origin) by malachite green reagent based assay
Chain of Bis(5'-nucleosyl)-tetraphosphatase [asymmetrical] (P50583 whole entry): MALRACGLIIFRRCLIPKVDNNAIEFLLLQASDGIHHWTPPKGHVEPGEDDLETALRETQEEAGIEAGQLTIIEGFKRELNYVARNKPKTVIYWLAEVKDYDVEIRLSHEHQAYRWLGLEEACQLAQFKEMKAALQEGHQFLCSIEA

[15] = target: T4, Nucleotide triphosphate diphosphatase NUDT15 (Homo sapiens, UniProt Q9NV35); test: Inhibition of human His-tagged NUDT15 expressed in bacterial expression system after 1 hr by malachite green reagent based assay
T4 sequence (Q9NV35 whole entry): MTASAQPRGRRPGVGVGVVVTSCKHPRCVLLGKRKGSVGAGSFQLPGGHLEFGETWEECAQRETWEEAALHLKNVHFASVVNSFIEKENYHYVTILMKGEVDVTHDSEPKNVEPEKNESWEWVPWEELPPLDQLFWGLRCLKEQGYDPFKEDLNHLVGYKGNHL

[16] = Inhibition of human His-tagged dUTPase expressed in bacterial expression system after 1 hr by malachite green reagent based assay
[17] = target: Oxidized purine nucleoside triphosphate hydrolase (Homo sapiens, UniProt P36639); test: Inhibition of recombinant human MTH1 using dGTP as substrate after 1 hr by malachite green reagent based assay
[18] = target: Inosine triphosphate pyrophosphatase (Homo sapiens, UniProt Q9BY32); test: Inhibition of human His-tagged ITPase expressed in bacterial expression system after 1 hr by malachite green reagent based assay
[19] = target: ADP-sugar pyrophosphatase (Homo sapiens, UniProt Q9UKK9); test: Inhibition of human His-tagged NUDT5 expressed in bacterial expression system in presence of ADP after 1 hr by malachite green reagent based assay
[20] = target: T5, ADP-ribose pyrophosphatase, mitochondrial (Homo sapiens, UniProt Q9BW91); test: Inhibition of NUDT9 (unknown origin) by malachite green reagent based assay
T5 sequence (Q9BW91 whole entry): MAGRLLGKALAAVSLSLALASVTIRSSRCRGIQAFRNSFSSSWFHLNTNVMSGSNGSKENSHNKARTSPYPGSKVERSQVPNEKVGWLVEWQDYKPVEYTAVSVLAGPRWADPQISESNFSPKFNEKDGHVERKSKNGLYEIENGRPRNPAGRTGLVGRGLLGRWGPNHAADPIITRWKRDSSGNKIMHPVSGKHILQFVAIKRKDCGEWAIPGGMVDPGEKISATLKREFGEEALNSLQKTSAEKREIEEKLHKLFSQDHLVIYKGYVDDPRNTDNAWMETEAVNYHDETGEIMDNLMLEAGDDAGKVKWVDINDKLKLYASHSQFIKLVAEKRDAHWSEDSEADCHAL

[21] = Metabolic stability in human plasma after 4 hrs; assay type: ADME, cell-free; details: read-out: Stability
[22] = Fraction unbound in human plasma; assay type: ADME, cell-free

Row | hepatic extraction ratio [1] | half-life [2] [min] | Stability [3] | Stability [5] | Stability [6] | solubility kinetic [7] [µM] | half-life [8] [min] | hepatic extraction ratio [10] | IC50 [11] [µM] | SMILES | other results
1 | 0.99 | 1 | Stable | Stable | Stable | 25 (≈ 8.08 µg/mL) | 3 | 0.96 | 0.19 | c1ccc(-c2nnc3sc(-c4ccc5c(c4)OCO5)nn23)nc1 | ΔTm [4]: 3.1 °C; Ratio [9]: 3.5
2 | 0.99 | 1 | Stable | Stable | Stable | 30 (≈ 8.59 µg/mL) | 6 | 0.89 | 0.17 | c1csc(-c2nnc3sc(-c4cnccn4)nn23)c1 | –
3 | 0.97 | 2 | Stable | Stable | Stable | 58 (≈ 16.7 µg/mL) | 14 | 0.79 | > 10 | Cc1cc(-c2nn3c(-c4cccs4)nnc3s2)n[nH]1 | ΔTm [4]: 0.9 °C; Ratio [9]: 0.78
4 | 0.99 | 1 | Stable | Stable | Stable | 19 (≈ 6.24 µg/mL) | 5 | 0.91 | 0.019 | COc1ccc(-c2nn3c(-c4ccco4)nnc3s2)cc1OC | Activity [12]: Non-Toxic
5 | – | 1 | Stable | Stable | Stable | 3 (≈ 1.03 µg/mL) | 4 | – | – | COc1ccc(-c2nn3c(-c4cccs4)nnc3s2)cc1OC | Activity [12]: Non-Toxic; IC50 [13]: > 100 µM; IC50 [14]: > 100 µM; IC50 [15]: > 100 µM; IC50 [16]: > 100 µM; IC50 [17]: > 100 µM; IC50 [18]: > 100 µM; IC50 [19]: > 100 µM; IC50 [20]: > 100 µM
6 | – | – | Stable | Stable | Stable | – | – | – | 0.691 | Cc1ccccc1-c1nn2c(-c3cnccn3)nnc2s1 | –
7 | – | – | Stable | Stable | Stable | – | – | – | 0.453 | C(=C\c1cccnc1)/Cc1nn2c(-c3ccco3)nnc2s1 | –
8 | – | – | Stable | Stable | Stable | – | – | – | 0.592 | c1ccc(-c2nn3c(-c4ccco4)nnc3s2)cc1 | –
9 | – | – | Stable | Stable | Stable | – | – | – | 0.619 | c1ccc(-c2nn3c(-c4ccccn4)nnc3s2)cc1 | –
10 | 0.95 | 3 | Stable | Stable | Stable | 27 (≈ 9.16 µg/mL) | 21 | 0.67 | 0.079 to 0.094 | COc1ccc(-c2nn3c(-c4ccccn4)nnc3s2)cc1OC | remaining at 4 h [21]: 100%; Activity [12]: Non-Toxic; ΔTm [4]: 9.4 °C; Ratio [9]: 0.15; fraction unbound [22]: 0.063
11 | – | – | Stable | Stable | Stable | – | – | – | 1.03 | COc1ccccc1-c1nn2c(-c3ccccn3)nnc2s1 | –
12 | – | – | Stable | Stable | Stable | – | – | – | 0.505 to 0.746 | Cc1ccccc1-c1nn2c(-c3ccccn3)nnc2s1 | –
13 | – | – | Stable | Stable | Stable | – | – | – | 0.602 | Brc1cccc(-c2nn3c(-c4ccccn4)nnc3s2)c1 | –
14 | – | – | Stable | Stable | Stable | – | – | – | 0.401 | c1ccc(-c2nnc3sc(-c4cc5ccccc5o4)nn23)nc1 | –
15 | – | – | Stable | Stable | Stable | – | – | – | 0.177 | c1coc(-c2nnc3sc(-c4ccc5ccccc5n4)nn23)c1 | –
